From US9862724B2, “Pyrazolo[1,5-a]pyrimidine-based compounds, compositions comprising them, and methods of their use” (LEXICON PHARMACEUTICALS, INC., priority 2013, dated 2018) come the findings set out here.

pIC50: −log10 of the molar value. Read-outs that look alike come from different tables or passages of the source. Where only a bound is given, the exact number is not on record here.

Test [1] concerns the target T1, AAK1 (full-length human protein) (Homo sapiens, UniProt Q2M2I8).
T1 construct: NP_055726.2
Kind of test: P81 filter plate assay. It is filed as biochemical. The settings on record: 0.2 nM 2x AAK1, Mu2 substrate, 33P-ATP; class symbols. The method, then: Compounds were serially diluted into a Labcyte LDV plate (Labcyte, cat# LP-0200) using a Mutiprobe (PerkinElmer) and Biomek FX (Beckman Coulter) so that the highest compound concentration was at 96 μM. Compounds were then pinged (75 nL per well) into a Greiner 384-well reaction plate (Greiner, #781076) using an ECHO 550 Liquid Handler (Labcyte). A total of 12 μl reaction buffer (IMAP buffer containing Tween and DTT, from Molecular Devices) was then added to each well of columns 1 and 13 for the negative controls and 12 μl of 2×AAK1 (0.2 nM full-length human protein, NCBI accession no. NP_055726.2) was added to the remaining wells. Enzyme was then pre-incubated with compound for 10 minutes at RT. Reactions were initiated upon Minitrak (PerkinElmer) addition of 12 μl substrate mix containing 2×Mu2 (0.2 μM, full length human protein), 2× cold ATP (2 μM), and 1.3 μCi of hot ^33P-ATP. Reactions proceeded for one hour at RT. Meanwhile, Millipore 384-well P81 filter plates (Millipore, catalog # MZPHN0W10) were placed on a plate washer (Zoom ZW, from Titertek) and pre-wet with 50 μl […] phosphoric acid. Kinase reactions were then stopped upon addition of 24 μl of 2% phosphoric acid to each well and the Minitrak was then used to transfer 40 μl from each well into the pre-wet Millipore 384-well P81 filter plates. Reaction mixtures were incubated for 10 minutes at room temperature in the P81 plates, followed by washing five times with 100 μl/well of 1% phosphoric acid using the Zoom filter washer. The bottom of each filter plate was sealed followed by addition of 20 μl Microscint 40 to each well, sealing the top of the plates with Flashplate cover, and then waiting one hour until reading on the TopCount (PerkinElmer).

In test [2] the target is T2, AAK1 (Homo sapiens, UniProt Q2M2I8).
T2 construct: expressed in transfected cells; host or cells: HEK293F
T2 sequence (Q2M2I8 1-863 isoform Q2M2I8-2): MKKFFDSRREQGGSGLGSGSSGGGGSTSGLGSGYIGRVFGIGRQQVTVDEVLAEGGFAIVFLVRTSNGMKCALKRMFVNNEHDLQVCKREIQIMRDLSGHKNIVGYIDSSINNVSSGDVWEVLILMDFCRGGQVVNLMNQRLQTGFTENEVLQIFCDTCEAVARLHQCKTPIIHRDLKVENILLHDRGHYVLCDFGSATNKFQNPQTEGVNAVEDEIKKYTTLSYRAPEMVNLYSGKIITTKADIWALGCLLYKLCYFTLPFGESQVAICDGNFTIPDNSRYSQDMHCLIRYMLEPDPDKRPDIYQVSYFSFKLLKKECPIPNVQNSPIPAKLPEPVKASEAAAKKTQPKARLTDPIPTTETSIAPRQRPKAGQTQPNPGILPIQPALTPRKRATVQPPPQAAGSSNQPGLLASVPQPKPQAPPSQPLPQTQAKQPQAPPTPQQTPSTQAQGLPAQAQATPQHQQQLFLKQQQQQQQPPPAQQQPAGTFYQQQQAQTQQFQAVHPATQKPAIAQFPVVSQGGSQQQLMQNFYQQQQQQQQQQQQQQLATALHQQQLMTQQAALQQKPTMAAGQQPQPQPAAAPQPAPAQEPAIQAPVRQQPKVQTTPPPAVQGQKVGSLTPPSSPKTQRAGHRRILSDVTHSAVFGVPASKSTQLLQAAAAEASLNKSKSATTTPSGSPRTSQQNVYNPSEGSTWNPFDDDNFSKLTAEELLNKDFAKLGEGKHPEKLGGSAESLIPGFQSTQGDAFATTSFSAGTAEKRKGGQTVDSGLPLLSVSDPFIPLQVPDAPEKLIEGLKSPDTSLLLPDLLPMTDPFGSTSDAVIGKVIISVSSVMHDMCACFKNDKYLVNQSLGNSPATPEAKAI
Put plainly: HEK281 cell-based assay (phospho-mu2 Western blot in transfected HEK293F cells). The conditions noted are these: HEK293F cells transfected with human AAK1 and AP2M1, 3 hours, read-out: CBA IC50. On the procedure: HEK293F cells were cultured in media containing DMEM (Gibco, cat. #11965), 10% FBS (SAFC Biosciences, cat. #12103C), 1×GPS (glutamine, penicillin and streptomycin). On day one, cells were plated on a 10 cm dish so that they are ˜80% confluent at time of transfection. Roughly 12 million cells were in a 10 cm dish at time of transfection. On day two, each dish was transfected with 48 ug DNA and 144 ul Lipofectamine 2000 (Invitrogen, cat.#11668-019). The DNA was comprised of a mixture (per 10 cm dish) containing 3 ug AAK1/HA/pIRES (full length human, NCBI accession no. NP_055726.2), 45 μg Flag/AP2MI/pcDNA (full length human), and 1.5 ml OPTI-MEM. The Lipofectamine 2000 is made up of a mixture (per 10 cm dish) containing 144 μl Lipofectamine 2000 and 1.5 ml OPTI-MEM. Each mixture was transferred to individual 15 ml tubes and incubated at room temperature for 5 minutes, and then the two mixes were combined and incubated at room temperature for 20 minutes. Growth media was then aspirated from each 10 cm plate and replaced with 10 ml of DMEM+10% FBS (no GPS). Finally, 3 ml DNA/Lipofectamine mix was added to each 10 cm dish and mix gently followed by incubate of plate overnight at 37° C. and 5% CO2.
On day three, compounds were diluted in 100% DMSO at 1000× final concentration, followed by 3-fold serial dilutions for a total of 5 concentrations tested. Four compounds were tested per 10 cm dish. One ul of each compound dilution was then pipetted into a deep-well, 96-well plate, followed by addition of 500 μl DMEM+0.5% FBS into each well for a 2× final concentration of each compound. Cells were resuspended in a 10 cm dish by simple pipetting (HEK293 cells come off the plate that easy at this point) and then transferred to a 50 ml conical tube and pelleted by centrifugation at 1000 rpm for 5 min. Cell pellets were then resuspended in 2.75 ml DMEM+0.5% FBS per 10 cm dish and 100 μl of cell suspension transferred into each well of 96-well TC plate. Finally, 100 μl of 2× compound diluted in DMEM+0.5% FBS was then added into wells containing cell suspension for a 1× final concentration. Plates were then incubated at 37° C. and 5% CO2 for 3 hours followed by transferring of cell suspensions from each well into 12-tube PCR strips. The PCR strips were spun in a tip rack at 1000 rpm for 5 minutes to pellet cells and media was then removed by pipetting without disturbing the cell pellet.
To prepare for Western Blot analysis, cell pellets were resuspend in 40 ul 1×LDS-PAGE sample buffer (Invitrogen, cat.# NP0008)+2× Halt phophatase and protease inhibitor cocktail (Thermo Scientific, cat.#1861284), followed by sonicating each with microtip sonicator set at 5 for 8-10 seconds. Five ul of 10× NuPage Sample Reducing Agent (with […]) was to each sample followed by heat denaturing at 70 C for 10 min on PCR machine. A total of 10 μl per sample was loaded into each lane of a 4-20% Tris-Glycine Criterion 26-well gel (Biorad, cat.#345-0034) for the phospho-mu2 blot and 10 μl per lane in a 4-12% Bis-Tris (+MES buffer) NuPAGE 26-well gel (Invitrogen, cat.# WG1403BX10) for the mu2 blot. For controls, 2 ng of phospho-mu2 or 20 ng mu2/Flag proteins were loaded in the last well of each gel. After SDS-PAGE, samples on each gel were transferred to PVDF membrane using an iBlot and membranes were blocked for one hour in TBST+5% milk, followed by wash 3× for 5-10 min with TBST. Criterion gels were probed with rabbit anti-phospho-mu2 (1:5000; a rabbit polyclonal antibody produced by New England Peptide and affinity purified at Lexicon) in TBST+5% BSA, whereas, NuPAGE gels were probed with mouse anti-Flag (1:500; Sigma, cat.# F1804) in TBST+5% milk, and these primary antibodies were incubated overnight at 4° C. on a rocker. […]

T1 sequence (Q2M2I8 1-863 isoform Q2M2I8-2): as above

As for `COc1ncccc1-c1cnn2ccc(-c3ccn(CCOC(C)C)c(=O)c3)nc12` [1-(2-isopropoxyethyl)-4-(3-(2-methoxypyridin-3-yl)pyrazolo[1,5-a]pyrimidin-5-yl)pyridin-2(1H)-one], the values for the negative-log IC50 (pIC50) in test [1] and in test [2] (class symbols) were not below 7.00 and not below 8.00, respectively.

For the compound `COCCn1ccc(-c2ccn3ncc(-c4cccnc4OC)c3n2)cc1=O` [1-(2-methoxyethyl)-4-(3-(2-methoxypyridin-3-yl)pyrazolo[1,5-a]pyrimidin-5-yl)pyridin-2(1H)-one], the negative-log IC50 (pIC50) in test [1] and in test [2] (class symbols) was not below 8.00 throughout.

`COc1ncccc1-c1cnn2ccc(-c3ccn(CCC(C)(C)C)c(=O)c3)nc12` [1-(3,3-Dimethylbutyl)-4-(3-(2-methoxypyridin-3-yl)pyrazolo[1,5-a]pyrimidin-5-yl)pyridin-2(1H)-one]: the pIC50 in test [1] and in test [2] (class symbols) was not below 8.00 in each case. Take `COc1ccc(F)cc1-c1cnn2ccc(-c3ccn(CCC(C)(C)C)c(=O)c3)nc12` [1-(3,3-Dimethylbutyl)-4-(3-(5-fluoro-2-methoxyphenyl)pyrazolo[1,5-a]pyrimidin-5-yl)pyridin-2(1H)-one]: the pIC50 in test [1] and in test [2] (class symbols) was not below 8.00 each time. `COc1ncc(F)cc1-c1cnn2ccc(-c3ccn(CCC(C)(C)C)c(=O)c3)nc12` [1-(3,3-dimethylbutyl)-4-(3-(5-fluoro-2-methoxypyridin-3-yl)pyrazolo[1,5-a]pyrimidin-5-yl)pyridin-2(1H)-one]: the pIC50 in test [1] and in test [2] (class symbols) was not below 8.00 each time. In the case of `COc1ncccc1-c1cnn2ccc(-c3ccn(CC(C)C)c(=O)c3)nc12` [1-isobutyl-4-(3-(2-methoxypyridin-3-yl)pyrazolo[1,5-a]pyrimidin-5-yl)pyridin-2(1H)-one], the pIC50 in test [1] and in test [2] (class symbols) was not below 8.00 each time. `COc1nc(C)ccc1-c1cnn2ccc(-c3ccn(CCC(C)C)c(=O)c3)nc12` [1-isopentyl-4-(3-(2-methoxy-6-methylpyridin-3-yl)pyrazolo[1,5-a]pyrimidin-5-yl)pyridin-2(1H)-one]: the pIC50 in test [1] and in test [2] (class symbols) was not below 8.00 throughout.

In the case of `COc1ncccc1-c1cnn2ccc(-c3ccn(CCC(C)C)c(=O)c3)nc12` [1-isopentyl-4-(3-(2-methoxypyridin-3-yl)pyrazolo[1,5-a]pyrimidin-5-yl)pyridin-2(1H)-one], the negative logarithm of the IC50 (pIC50) in test [1] and in test [2] (class symbols) was not below 8.00 each time. Consider `CC(C)CCn1ccc(-c2ccn3ncc(C(F)(F)F)c3n2)cc1=O` [1-isopentyl-4-(3-(trifluoromethyl)pyrazolo[1,5-a]pyrimidin-5-yl)pyridin-2(1H)-one], for which the pIC50 in test [2] (class symbols) is not below 7.00. Still for that read-out and setting: with `CC(C)CCn1ccc(-c2ccn3nccc3n2)cc1=O` [1-isopentyl-4-(pyrazolo[1,5-a]pyrimidin-5-yl)pyridin-2(1H)-one] the figure was not below 7.00. Consider `COc1cc(-c2ccn3ncc(-c4cc(F)ccc4OC)c3n2)ccn1` [3-(5-fluoro-2-methoxyphenyl)-5-(2-methoxypyridin-4-yl)pyrazolo[1,5-a]pyrimidine], for which the pIC50 in test [1] is not below 6.00; in test [2] (class symbols), not below 8.00. As for `CC(C)CCn1ccc(-c2ccn3ncc(Cl)c3n2)c(Cl)c1=O` [3-chloro-4-(3-chloropyrazolo[1,5-a]pyrimidin-5-yl)-1-isopentylpyridin-2(1H)-one], the pIC50 in test [2] (class symbols) was not below 7.00. Consider `CCOc1ncccc1-c1cnn2ccc(-c3ccn(CCC(C)C)c(=O)c3)nc12` [4-(3-(2-ethoxypyridin-3-yl)pyrazolo[1,5-a]pyrimidin-5-yl)-1-isopentylpyridin-2(1H)-one], for which the pIC50 in test [1] and in test [2] (class symbols) was not below 8.00 in each case. In the case of `CC(C)(C)CCn1ccc(-c2ccn3ncc(Br)c3n2)cc1=O` [4-(3-bromopyrazolo[1,5-a]pyrimidin-5-yl)-1-(3,3-dimethylbutyl)pyridin-2(1H)-one], the pIC50 in test [2] (class symbols) was not below 7.00. Turning to `C1=C(c2ccn3nccc3n2)CCNC1` [5-(1,2,3,6-tetrahydropyridin-4-yl)pyrazolo[1,5-a]pyrimidine], the pIC50 in test [2] (numeric bounds) is less than 6.52.

In the case of `CC(C)Oc1cc(-c2ccn3ncc(CO)c3n2)ccn1` [(5-(2-isopropoxypyridin-4-yl)pyrazolo[1,5-a]pyrimidin-3-yl)methanol], the pIC50 in test [2] (numeric bounds) was less than 6.52. Take `COc1ncccc1-c1cnn2ccc(-c3ccc(C(=O)OC(C)C)cc3)nc12` [isopropyl 4-(3-(2-methoxypyridin-3-yl)pyrazolo[1,5-a]pyrimidin-5-yl)benzoate]: the pIC50 in test [2] (class symbols) was not below 8.00. In the case of `CC(C)OC(=O)c1ccc(-c2ccn3ncc(Br)c3n2)cc1` [isopropyl 4-(3-bromopyrazolo[1,5-a]pyrimidin-5-yl)benzoate], in test [2] (class symbols), the negative-log IC50 (pIC50) was not below 7.00. Take `CC(C)OC(=O)c1ccc(-c2ccn3ncc(I)c3n2)cc1` [isopropyl 4-(3-iodopyrazolo[1,5-a]pyrimidin-5-yl)benzoate]: in test [2] (class symbols), the negative logarithm of the IC50 (pIC50) was not below 7.00.

Take `CC(C)OC(=O)c1ccc(-c2ccn3nccc3n2)cc1` [isopropyl 4-(pyrazolo[1,5-a]pyrimidin-5-yl)benzoate]: the pIC50 in test [2] (class symbols) was not below 6.00. As to `COc1ncccc1-c1cnn2ccc(CCCN(C)C(=O)OC(C)C)nc12` [isopropyl (3-(3-(2-methoxypyridin-3-yl)pyrazolo[1,5-a]pyrimidin-5-yl)propyl)(methyl)carbamate], in test [2] (class symbols), the negative-log IC50 (pIC50) is not below 7.00. For `COc1ncccc1-c1cnn2ccc(CCCCN(C)C(=O)OC(C)C)nc12` [isopropyl (4-(3-(2-methoxypyridin-3-yl)pyrazolo[1,5-a]pyrimidin-5-yl)butyl)(methyl)carbamate], in test [2] (class symbols), the pIC50 is not below 7.00. With `CC(C)OC(=O)N(C)CCCCc1ccn2ncc(Br)c2n1` [isopropyl (4-(3-bromopyrazolo[1,5-a]pyrimidin-5-yl)butyl)(methyl)carbamate], the pIC50 in test [2] (numeric bounds) is less than 6.52. Turning to `CC(C)(C)OC(=O)N1CC=C(c2ccn3nccc3n2)CC1` [tert-butyl 4-(pyrazolo[1,5-a]pyrimidin-5-yl)-5,6-dihydropyridine-1(2H)-carboxylate], the pIC50 in test [2] (class symbols) is not below 7.00.
